The values that follow come from US11136313B2, “Compounds, compositions, and methods for modulating CFTR” (Proteostasis Therapeutics, Inc., priority 2015, dated 2021).

For the assay, the target named is T1, ΔF508-CFTR (Homo sapiens, UniProt P13569, DEL508-508).
T1 construct: Primary lung epithelial cells homozygous for the Cystic Fibrosis-causing ΔF508 mutation were differentiated for a minimum of 4 weeks; endogenous in cells; host or cells: primary lung epithelial cells (hBE) homozygous for ΔF508, differentiated at an air-liquid interface
T1 sequence (P13569 with tags, fused parts or gaps DEL508-508): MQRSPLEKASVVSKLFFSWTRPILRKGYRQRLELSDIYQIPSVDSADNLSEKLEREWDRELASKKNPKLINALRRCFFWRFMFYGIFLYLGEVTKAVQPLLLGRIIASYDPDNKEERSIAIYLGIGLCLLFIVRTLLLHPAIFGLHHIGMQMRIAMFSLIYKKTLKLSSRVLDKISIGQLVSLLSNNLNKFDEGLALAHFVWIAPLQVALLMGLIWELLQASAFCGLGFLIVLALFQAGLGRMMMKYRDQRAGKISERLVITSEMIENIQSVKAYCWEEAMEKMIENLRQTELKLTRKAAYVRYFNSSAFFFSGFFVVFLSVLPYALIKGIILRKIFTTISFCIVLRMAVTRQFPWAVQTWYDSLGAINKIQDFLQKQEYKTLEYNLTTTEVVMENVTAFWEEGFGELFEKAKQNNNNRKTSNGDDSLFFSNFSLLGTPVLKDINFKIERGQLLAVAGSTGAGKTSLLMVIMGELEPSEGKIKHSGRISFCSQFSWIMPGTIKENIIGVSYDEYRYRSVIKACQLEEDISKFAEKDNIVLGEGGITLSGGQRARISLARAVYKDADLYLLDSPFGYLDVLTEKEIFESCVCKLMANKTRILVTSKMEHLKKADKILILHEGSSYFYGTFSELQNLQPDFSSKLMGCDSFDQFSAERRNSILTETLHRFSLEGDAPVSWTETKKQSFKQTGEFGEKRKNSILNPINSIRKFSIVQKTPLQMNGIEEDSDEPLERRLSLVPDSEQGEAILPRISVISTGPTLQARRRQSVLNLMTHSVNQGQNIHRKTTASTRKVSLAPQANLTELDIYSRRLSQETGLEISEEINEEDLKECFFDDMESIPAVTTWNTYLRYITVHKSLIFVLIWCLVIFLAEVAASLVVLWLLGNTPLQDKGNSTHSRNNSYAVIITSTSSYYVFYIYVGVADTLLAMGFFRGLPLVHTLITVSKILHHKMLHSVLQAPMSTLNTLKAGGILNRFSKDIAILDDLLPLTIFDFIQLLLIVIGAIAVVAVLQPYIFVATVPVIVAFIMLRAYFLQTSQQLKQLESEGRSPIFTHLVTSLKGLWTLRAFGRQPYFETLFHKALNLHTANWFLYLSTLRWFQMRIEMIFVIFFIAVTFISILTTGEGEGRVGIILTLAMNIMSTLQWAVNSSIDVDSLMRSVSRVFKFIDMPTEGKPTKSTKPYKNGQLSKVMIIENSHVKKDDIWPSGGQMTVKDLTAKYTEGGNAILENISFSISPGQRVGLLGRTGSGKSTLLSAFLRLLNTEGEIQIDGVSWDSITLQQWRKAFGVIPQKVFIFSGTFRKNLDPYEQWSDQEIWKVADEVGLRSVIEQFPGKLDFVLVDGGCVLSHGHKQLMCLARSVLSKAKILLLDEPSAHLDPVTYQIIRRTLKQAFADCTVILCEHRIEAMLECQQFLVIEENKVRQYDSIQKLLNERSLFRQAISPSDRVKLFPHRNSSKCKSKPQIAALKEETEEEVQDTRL
The assay can be described thus: hBE equivalent current (Ieq) assay: AUC of equivalent chloride current after forskolin/VX-770 in primary lung epithelial cells homozygous for ΔF508. Format: cell-based. Conditions: relative to CFTR amplifier (Compound A)+VX-809 (3 uM), compound at 10 uM and Compound A at 3 uM, 24 h treatment. As for the experimental part:
ii. hBE Equivalent Current (Ieq) Assay
Primary lung epithelial cells homozygous for the Cystic Fibrosis-causing ΔF508 mutation were differentiated for a minimum of 4 weeks in an air-liquid interface on Costar 24 well HTS filter plates prior to the equivalent current (Ieq) measurements. Cells were apically mucus-washed for 30 minutes 24 h prior to treatment with compounds. The basolateral media was removed and replaced with media containing the compound of interest diluted to its final concentration from DMSO stocks. Treated cells were incubated at 37° C. and 5% CO2 for 24 hours. At the end of the treatment period, the media was changed to the Ieq experimental solution for 2 hours before the experiment and plates are maintained in a CO2-free incubator during this period. The plates containing the cells were then placed in pre-warmed heating blocks at 36° C.±0.5 for 15 minutes before measurements are taken. The transepithelial voltage (VT) and conductance (GT) were measured using a custom 24 channel current clamp (TECC-24) with 24 well electrode manifold. The Ieq assay measurements were made following additions with standardized time periods: • 1. The baseline VT and GT values were measured for approximately 20 minutes. • 2. Benzamil was added to block ENaC for 15 minutes. • 3. Forskolin plus VX-770 were added to maximally activate ΔF508-CFTR for 27 minutes. • 4. Bumetanide was added to inhibit the NaK2Cl cotransporter and shut-off secretion of chloride.
The activity data captured was the area under the curve (AUC) for the traces of the equivalent chloride current. The AUC was collected from the time of the forskolin/VX-770 addition until the inhibition by bumetanide addition. Correction in response to compound treatment was scored as the increase in the AUC for compound-treated samples over that of vehicle-treated samples.
(+ indicates activity<50% of an CFTR amplifier (Compound A)+VX-809 (3 uM) with compound at 10 uM and Compound A at 3 uM; ++ indicates activity>50% of CFTR amplifier+VX-809 (3 uM) with compound at 10 uM and Compound A at 3 uM.

For the compound `CNS(=O)(=O)c1ccc([C@H](C)Oc2ccc(C)c3nc(-c4oc5ccccc5c4C)cc(C(=O)[O-])c23)cc1.[Na+]` [Compound 240, Sodium 8-Methyl-2-(3-methyl-1-benzofuran-2-yl)-5-[(1S)-1-[4-(methylsulfamoyl)phenyl]ethoxy]quinoline-4-carboxylate], the Activity entry was “++ (activity>50% of CFTR amplifier+VX-809 (3 uM) with compound at 10 uM and Compound A at 3 uM)”.

For the compound `Cc1ccc(O[C@H](C)c2ccccc2)c2c(C(=O)[O-])cc(-c3cc4ccccn4n3)nc12.[Na+]` [Compound 208], the Activity entry was “++ (activity>50% of CFTR amplifier+VX-809 (3 uM) with compound at 10 uM and Compound A at 3 uM)”. On to `Cc1c(-c2cc(C(=O)O)c3c(OC(=O)Nc4ccccc4)ccc(C)c3n2)oc2ccccc12` [Compound 81, 8-Methyl-2-(3-methyl-1-benzofuran-2-yl)-5-[(phenylcarbamoyl)oxy]quinoline-4-carboxylic Acid], for which the Activity entry is “+ (activity<50% of an CFTR amplifier (Compound A)+VX-809 (3 uM) with compound at 10 uM and Compound A at 3 uM)”. Under `Cc1c(-c2cc(C(=O)[O-])c3c(O[C@H]4C[C@H]5CC[C@@H](C4)O5)ccc(C)c3n2)sc2ccccc12.[Na+]` [Compound 353] stands “++ (activity>50% of CFTR amplifier+VX-809 (3 uM) with compound at 10 uM and Compound A at 3 uM)”. The entry for `Cc1c(-c2cc(C(=O)O)c3c(OCc4ccccc4)ccc(C#N)c3n2)oc2ccccc12` [Compound 112, 5-(benzyloxy)-8-cyano-2-(3-methyl-1-benzofuran-2-yl)quinoline-4-carboxylic Acid] is “++ (activity>50% of CFTR amplifier+VX-809 (3 uM) with compound at 10 uM and Compound A at 3 uM)”; for `Cc1c(-c2cc(C(=O)O)c3cc(C(C)C)cc(C)c3n2)oc2ccccc12` [Compound 36] it is “++ (activity>50% of CFTR amplifier+VX-809 (3 uM) with compound at 10 uM and Compound A at 3 uM)”.

Consider `COc1cccc(COc2ccc(C)c3nc(-c4sc5ccccc5c4C)cc(C(=O)[O-])c23)c1.[Na+]` [Compound 293, Sodium 5-[(3-Methoxyphenyl)methoxy]-8-methyl-2-(3-methyl-1-benzothiophen-2-yl)quinoline-4-carboxylate], for which the Activity result is “++ (activity>50% of CFTR amplifier+VX-809 (3 uM) with compound at 10 uM and Compound A at 3 uM)”.

`CO[C@]1(C)CC[C@H](COc2ccc(C)c3nc(-c4oc5ccccc5c4C)cc(C(=O)[O-])c23)CC1.[Na+]` [Compound 387]: the Activity result is “++ (activity>50% of CFTR amplifier+VX-809 (3 uM) with compound at 10 uM and Compound A at 3 uM)”. Take `CCc1ccc(O[C@H]2CCC[C@H](C)C2)c2c(C(=O)[O-])cc(-c3sc4ccccc4c3C)nc12.[Na+]` [Compound 216, Sodium 8-Ethyl-2-(3-methyl-1-benzothiophen-2-yl)-5-[[(1S,3S)-3-methylcyclohexyl]oxy]quinoline-4-carboxylate]: the Activity entry was “++ (activity>50% of CFTR amplifier+VX-809 (3 uM) with compound at 10 uM and Compound A at 3 uM)”. Under `Cc1c(-c2cc(C(=O)[O-])c3c(O[C@H]4CCC[C@@H](c5ccccc5)C4)ccc(C)c3n2)oc2ccccc12.[Na+]` [Compound 299] stands “++ (activity>50% of CFTR amplifier+VX-809 (3 uM) with compound at 10 uM and Compound A at 3 uM)”; under `Cc1ccc(C)c2c(C(=O)O)cc(-c3cc4ccccc4o3)nc12` [Compound 10, 2-(1-Benzofuran-2-yl)-5,8-dimethylquinoline-4-carboxylic acid], “+ (activity<50% of an CFTR amplifier (Compound A)+VX-809 (3 uM) with compound at 10 uM and Compound A at 3 uM)”. Take `Cc1c(-c2cc(C(=O)[O-])c3c(O[C@@H](C)c4ccc(C#N)cc4)ccc(C)c3n2)oc2ccccc12.[Na+]` [Compound 234]: the Activity result is “++ (activity>50% of CFTR amplifier+VX-809 (3 uM) with compound at 10 uM and Compound A at 3 uM)”.

Turning to `Cc1c(-c2cc(C(=O)O)c3c(O[C@@H](C)c4ccccc4)ccc(C)c3n2)sc2ccccc12` [Compound 138, 8-Methyl-2-(3-methyl-1-benzothiophen-2-yl)-5-[(1S)-1-phenylethoxy]quinoline-4-carboxylic Acid], the Activity result was “++ (activity>50% of CFTR amplifier+VX-809 (3 uM) with compound at 10 uM and Compound A at 3 uM)”. In the case of `Cc1c(-c2cc(C(=O)[O-])c3c(OC[C@H]4CC[C@](C)(O)CC4)ccc(C)c3n2)sc2ccccc12.[Na+]` [Compound 323], the Activity entry was “++ (activity>50% of CFTR amplifier+VX-809 (3 uM) with compound at 10 uM and Compound A at 3 uM)”.

Regarding `CO[C@]1(C)CC[C@@H](COc2ccc(C)c3nc(-c4oc5ccccc5c4C)cc(C(=O)[O-])c23)CC1.[Na+]` [Compound 388], the Activity entry is “++ (activity>50% of CFTR amplifier+VX-809 (3 uM) with compound at 10 uM and Compound A at 3 uM)”. Under `Cc1cc(Cl)cc2c(C(=O)O)cc(-c3cc4ccccc4o3)nc12` [Compound 16, 2-(1-Benzofuran-2-yl)-6-chloro-8-methylquinoline-4-carboxylic acid] stands “+ (activity<50% of an CFTR amplifier (Compound A)+VX-809 (3 uM) with compound at 10 uM and Compound A at 3 uM)”; under `Cc1c(-c2nc(C(=O)O)c3c(OCc4ccccc4)ccc(C)c3n2)oc2ccccc12` [Compound 101, 5-(Benzyloxy)-8-methyl-2-(3-methyl-1-benzofuran-2-yl)quinazoline-4-carboxylic Acid], “++ (activity>50% of CFTR amplifier+VX-809 (3 uM) with compound at 10 uM and Compound A at 3 uM)”. The entry for `CCc1ccc(C)c2nc(-c3oc4ccccc4c3C)cc(C(=O)O)c12` [Compound 113, 5-Ethyl-8-methyl-2-(3-methyl-1-benzofuran-2-yl)quinoline-4-carboxylic acid] is “+ (activity<50% of an CFTR amplifier (Compound A)+VX-809 (3 uM) with compound at 10 uM and Compound A at 3 uM)”. Consider `Cc1ccc(O[C@H](C)c2ccccc2)c2c(C(=O)O)cc(-c3csc4ccccc34)nc12` [Compound 162], for which the Activity result was “++ (activity>50% of CFTR amplifier+VX-809 (3 uM) with compound at 10 uM and Compound A at 3 uM)”. Under `Cc1ccc(O[C@H](C)c2ccccc2)c2c(C(=O)[O-])cc(-c3nc4ccccn4c3C)nc12.[Na+]` [Compound 200] stands “+ (activity<50% of an CFTR amplifier (Compound A)+VX-809 (3 uM) with compound at 10 uM and Compound A at 3 uM)”; under `CCc1ccc(OCc2ccc(-c3cnccn3)cc2)c2c(C(=O)O)cc(-c3csc4ccccc34)nc12` [Compound 192, 2-(1-Benzothiophen-3-yl)-8-ethyl-5-[[4-(pyrazin-2-yl)phenyl]methoxy]quinoline-4-carboxylic acid], “++ (activity>50% of CFTR amplifier+VX-809 (3 uM) with compound at 10 uM and Compound A at 3 uM)”; under `Cc1c(-c2cc(C(=O)O)c3c(OC(C)c4ccc(S(N)(=O)=O)cc4)ccc(C)c3n2)oc2ccccc12` (stereo not drawn) [Compound 360], “++ (activity>50% of CFTR amplifier+VX-809 (3 uM) with compound at 10 uM and Compound A at 3 uM)”. With `Cc1c(-c2cc(C(=O)[O-])c3c(OC[C@@H]4C[C@H]5CC[C@@H](C4)O5)ccc(C)c3n2)oc2ccccc12.[Na+]` [Compound 356], the Activity entry is “++ (activity>50% of CFTR amplifier+VX-809 (3 uM) with compound at 10 uM and Compound A at 3 uM)”. Under `Cc1c(-c2cc(C(=O)O)c3cc(C(F)(F)F)cc(C)c3n2)oc2ccccc12` [Compound 19, 8-Methyl-2-(3-methyl-1-benzofuran-2-yl)-6-(trifluoromethyl)quinoline-4-carboxylic acid] stands “++ (activity>50% of CFTR amplifier+VX-809 (3 uM) with compound at 10 uM and Compound A at 3 uM)”.
